{"source": "BindingDB's records for doi:10.1038/sj.npp.1300203", "about": "(Case Western Reserve University, 2003)", "key": {"[1]": {"biological_target": "Gamma-aminobutyric acid type B receptor subunit 1 (UniProt Q9Z0U4)", "sequence (Q9Z0U4 whole entry)": "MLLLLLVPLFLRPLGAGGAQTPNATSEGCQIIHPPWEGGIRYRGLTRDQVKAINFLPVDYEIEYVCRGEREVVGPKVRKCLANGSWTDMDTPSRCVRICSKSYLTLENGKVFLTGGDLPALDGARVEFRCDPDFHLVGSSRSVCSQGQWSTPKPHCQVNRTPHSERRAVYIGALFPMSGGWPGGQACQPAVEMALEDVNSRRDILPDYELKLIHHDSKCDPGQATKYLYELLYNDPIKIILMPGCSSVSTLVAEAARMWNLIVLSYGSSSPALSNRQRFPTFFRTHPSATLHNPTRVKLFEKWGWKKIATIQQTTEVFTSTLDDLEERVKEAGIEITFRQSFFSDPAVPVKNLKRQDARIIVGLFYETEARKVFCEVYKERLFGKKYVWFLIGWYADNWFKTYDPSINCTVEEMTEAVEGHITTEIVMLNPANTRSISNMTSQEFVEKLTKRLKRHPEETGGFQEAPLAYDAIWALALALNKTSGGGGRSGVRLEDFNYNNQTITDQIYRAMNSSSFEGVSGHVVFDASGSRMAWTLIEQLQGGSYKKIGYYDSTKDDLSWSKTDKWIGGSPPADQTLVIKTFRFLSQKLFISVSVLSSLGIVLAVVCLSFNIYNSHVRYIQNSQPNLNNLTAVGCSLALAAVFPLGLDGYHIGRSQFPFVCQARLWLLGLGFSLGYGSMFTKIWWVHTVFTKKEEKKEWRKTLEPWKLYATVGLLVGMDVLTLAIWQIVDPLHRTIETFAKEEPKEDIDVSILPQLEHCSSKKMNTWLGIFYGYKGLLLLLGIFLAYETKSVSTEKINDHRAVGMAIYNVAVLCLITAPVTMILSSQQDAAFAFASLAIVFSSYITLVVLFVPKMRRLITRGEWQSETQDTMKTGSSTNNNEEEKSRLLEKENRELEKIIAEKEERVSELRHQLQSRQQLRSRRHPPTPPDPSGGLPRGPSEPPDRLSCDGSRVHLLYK"}, "Histamine H3 receptor": {"biological_target": "Histamine H3 receptor (Cavia porcellus, UniProt Q9JI35)", "sequence (Q9JI35 whole entry)": "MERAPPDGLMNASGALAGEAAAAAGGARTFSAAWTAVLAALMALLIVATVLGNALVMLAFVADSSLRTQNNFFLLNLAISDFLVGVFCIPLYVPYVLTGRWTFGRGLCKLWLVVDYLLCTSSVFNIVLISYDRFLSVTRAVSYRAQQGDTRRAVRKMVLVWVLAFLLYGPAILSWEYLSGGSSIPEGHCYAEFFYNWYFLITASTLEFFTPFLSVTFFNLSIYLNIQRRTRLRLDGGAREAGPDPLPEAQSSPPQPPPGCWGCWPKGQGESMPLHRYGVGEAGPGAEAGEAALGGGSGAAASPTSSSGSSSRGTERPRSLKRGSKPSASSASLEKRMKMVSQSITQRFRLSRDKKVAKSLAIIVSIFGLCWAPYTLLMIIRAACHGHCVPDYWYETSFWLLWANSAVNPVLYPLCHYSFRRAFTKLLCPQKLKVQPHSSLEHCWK"}, "Histamine H4 receptor": {"biological_target": "Histamine H4 receptor (Homo sapiens, UniProt Q9H3N8)", "sequence (Q9H3N8 whole entry)": "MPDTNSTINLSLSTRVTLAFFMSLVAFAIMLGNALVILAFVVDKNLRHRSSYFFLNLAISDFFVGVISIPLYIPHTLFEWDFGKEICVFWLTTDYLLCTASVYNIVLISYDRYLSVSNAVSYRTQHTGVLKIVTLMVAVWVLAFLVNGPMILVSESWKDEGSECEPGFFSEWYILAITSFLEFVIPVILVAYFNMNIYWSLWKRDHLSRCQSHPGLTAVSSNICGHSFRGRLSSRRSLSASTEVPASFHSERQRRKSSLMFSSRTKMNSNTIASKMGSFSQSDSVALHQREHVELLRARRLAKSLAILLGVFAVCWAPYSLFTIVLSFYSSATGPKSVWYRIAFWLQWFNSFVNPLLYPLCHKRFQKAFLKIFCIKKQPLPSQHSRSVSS"}, "[2]": {"biological_target": "Protein kinase C gamma type (Homo sapiens, UniProt P05129)"}, "[3]": {"biological_target": "T1, Prostaglandin E2 receptor EP3 subtype (Homo sapiens, UniProt P43115)", "T1 sequence (P43115 whole entry)": "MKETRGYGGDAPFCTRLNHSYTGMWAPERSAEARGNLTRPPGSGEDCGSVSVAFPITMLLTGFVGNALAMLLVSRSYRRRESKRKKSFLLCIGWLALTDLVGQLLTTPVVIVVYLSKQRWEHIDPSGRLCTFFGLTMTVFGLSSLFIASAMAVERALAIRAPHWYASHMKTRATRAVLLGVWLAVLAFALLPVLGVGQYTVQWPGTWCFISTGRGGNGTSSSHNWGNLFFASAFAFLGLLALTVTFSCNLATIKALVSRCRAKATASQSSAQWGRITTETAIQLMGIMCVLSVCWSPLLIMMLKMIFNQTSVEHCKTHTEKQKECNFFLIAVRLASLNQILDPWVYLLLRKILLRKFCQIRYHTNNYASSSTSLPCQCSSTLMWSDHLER"}, "[4]": {"biological_target": "T2, 5-hydroxytryptamine receptor 3A (Rattus norvegicus, UniProt P35563)", "T2 sequence (P35563 whole entry)": "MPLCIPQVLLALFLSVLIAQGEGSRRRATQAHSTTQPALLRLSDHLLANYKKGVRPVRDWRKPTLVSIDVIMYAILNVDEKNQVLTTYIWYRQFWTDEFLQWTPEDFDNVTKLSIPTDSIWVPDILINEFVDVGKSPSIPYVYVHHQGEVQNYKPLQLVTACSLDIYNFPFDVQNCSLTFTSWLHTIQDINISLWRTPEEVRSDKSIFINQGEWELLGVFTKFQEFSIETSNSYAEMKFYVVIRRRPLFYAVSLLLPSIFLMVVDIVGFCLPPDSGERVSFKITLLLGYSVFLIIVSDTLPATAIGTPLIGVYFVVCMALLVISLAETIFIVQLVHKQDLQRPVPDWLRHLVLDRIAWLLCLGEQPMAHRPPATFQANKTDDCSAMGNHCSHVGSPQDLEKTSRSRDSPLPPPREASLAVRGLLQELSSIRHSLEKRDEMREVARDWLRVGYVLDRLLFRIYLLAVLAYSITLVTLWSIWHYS"}, "[5]": {"biological_target": "Prostaglandin E2 receptor EP4 subtype (Homo sapiens, UniProt P35408)", "sequence (P35408 whole entry)": "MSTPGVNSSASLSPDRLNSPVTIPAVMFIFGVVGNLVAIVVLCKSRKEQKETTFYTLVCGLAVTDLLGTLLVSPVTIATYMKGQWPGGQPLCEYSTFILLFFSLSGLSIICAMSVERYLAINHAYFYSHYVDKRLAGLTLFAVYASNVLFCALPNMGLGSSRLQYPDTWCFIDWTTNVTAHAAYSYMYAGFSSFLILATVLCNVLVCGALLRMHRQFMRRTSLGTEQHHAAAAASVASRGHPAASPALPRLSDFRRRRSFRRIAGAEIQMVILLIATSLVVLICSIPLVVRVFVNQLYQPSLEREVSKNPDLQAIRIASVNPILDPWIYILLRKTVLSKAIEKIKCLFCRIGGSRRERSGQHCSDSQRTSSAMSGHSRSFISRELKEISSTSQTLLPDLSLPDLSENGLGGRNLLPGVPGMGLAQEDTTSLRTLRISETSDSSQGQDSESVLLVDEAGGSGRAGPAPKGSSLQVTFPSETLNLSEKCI"}, "[6]": {"biological_target": "Protein kinase C alpha type (Homo sapiens, UniProt P17252)"}}}
{"smiles": "O=C1CCc2ccc(OCCCCN3CCN(c4cccc(Cl)c4Cl)CC3)cc2N1", "note": "[7-{4-[4-(2,3-dichlorophenyl)piperazin-1-yl]butoxy}-3,4-dihydroquinolin-2(1H)-one]", "values": [{"measurement": "Ki", "setting": "[1]", "value": "> 10", "unit": "µM"}, {"measurement": "Ki", "setting": "Histamine H3 receptor", "value": 0.224, "unit": "µM"}, {"measurement": "Ki", "setting": "Histamine H4 receptor", "value": "> 10", "unit": "µM"}, {"measurement": "Ki", "setting": "[2]", "value": 8, "unit": "µM"}, {"measurement": "Ki", "setting": "[3]", "value": "> 10", "unit": "µM"}, {"measurement": "Ki", "setting": "[4]", "value": 0.63, "unit": "µM"}, {"measurement": "Ki", "setting": "[5]", "value": "> 10", "unit": "µM"}, {"measurement": "Ki", "setting": "[6]", "value": "> 10", "unit": "µM"}]}
